Reference: PMC6792352, “Limited Chemical Structural Diversity Found to Modulate Thyroid Hormone Receptor in the Tox21 Chemical Library” (Environmental Health Perspectives, 2019)
Where a name gives a salt, the structure may show the parent alone.

assay: in vitro; details: rat, gh3-tre-luc cells, AC50 (uM) modified / 1000

SMILES	CC50 at 24 h [µM]
CC1=CCC(C(C)C)=CC1 [gamma-Terpinene]	> 90
CCCCC [Pentane]	> 90
C[C@@H]1O[C@@H](O[C@@H]2[C@@H](O)[C@H](OCCc3ccc(O)c(O)c3)O[C@H](CO[C@@H]3O[C@H](CO)[C@@H](O)[C@H](O)[C@H]3O)[C@H]2OC(=O)/C=C/c2ccc(O)c(O)c2)[C@H](O)[C@H](O)[C@H]1O [Echinacoside]	> 90
CC(=O)CCC(C)C [5-Methyl-2-hexanone]	> 90
CCC(C)CO (centres unmarked) [2-Methyl-1-butanol]	> 100
OC(c1ccccc1)(c1ccccc1)C1CN2CCC1CC2 (centres unmarked) [Quifenadine]	35.6
CC(=O)OCC(=O)[C@H]1CC[C@H]2[C@@H]3CC[C@H]4C[C@H](O)CC[C@]4(C)[C@H]3C(=O)C[C@]12C [Alfadolone acetate]	> 20
Cc1cc(N)c2ccccc2[n+]1CCCCCCCCCC[n+]1c(C)cc(N)c2ccccc21 [Dequalinium dichloride]	12.4
CCCCOC(=O)COC(=O)c1ccccc1C(=O)OCCCC [Butylphthalyl butylglycolate]	> 90
Oc1ccccc1/C=N/Cc1ccccc1 [Norletimol]	> 50
CCNc1nc(NC(C)C)nc(SC)n1 [Ametryn]	> 90
O=C(O)Cc1sc(-c2ccccc2)nc1-c1ccc(Cl)cc1 [Fentiazac]	> 50
N[C@H](CO)C(=O)O [D-Serine]	> 50
CCN(CC)CCOc1ccccc1OC [Guaiactamine]	> 50
CCCCCCCCCCCCCCCCCBr [1-Bromoheptadecane]	> 20
COCCOC[C@H](CC1(C(=O)N[C@H]2CC[C@@H](C(=O)O)CC2)CCCC1)C(=O)Oc1ccc2c(c1)CCC2 [Candoxatril]	> 90
CO[SiH](C)C [Methylpolysilicone]	> 100
CC/C=C/CCO [(E)-3-Hexen-1-ol]	> 90
CCOc1cc(CC(=O)N[C@@H](CC(C)C)c2ccccc2N2CCCCC2)ccc1C(=O)O [Repaglinide]	> 20
Cc1nc(C)c(C)nc1C [Tetramethylpyrazine]	> 90
O=c1ssc(Cl)c1Cl [4,5-Dichloro-3H-1,2-dithiol-3-one]	48
O=P(O)(O)OCC(O)CO (centres unmarked) [Dipotassium glycerophosphate]	> 50
C#C[C@]1(O)CC[C@H]2[C@@H]3CCC4=Cc5oncc5C[C@]4(C)[C@H]3CC[C@@]21C [Danazol]	57.4
COC1=CC(=O)O[C@@H](/C=C/c2ccc3c(c2)OCO3)C1 [Methysticin]	> 90

SMILES	CC50 at 24 h [µM]
NCCCCCC(=O)O [6-Aminocaproic acid]	> 20
CCN1CCCC1=O [1-Ethyl-2-pyrrolidinone]	> 90
COCCOC [Ethylene glycol dimethyl ether]	> 90
CCN(CC)CCOC(=O)C(O)(c1ccccc1)c1ccccc1 [Benactyzine]	> 50
CC[N+]1(CC)CCC(=C(c2ccccc2)c2ccccc2)C1C (centres unmarked) [Prifinium bromide]	> 50
CCCC1CCC(=O)O1 (centres unmarked) [1,4-Heptanolide]	> 90
CCO[Si](CC)(OCC)OCC [Ethyltriethoxysilane]	> 90
CCCCCCCCCCCCCCCC [Hexadecane]	> 90
COc1ccc2c3c1O[C@H]1[C@@H](O)C=C[C@H]4[C@@H](C2)N(C)CC[C@@]341 [Codeine hydrochloride]	> 90
O=C1[C@@H]2[C@H]3CC[C@H](C3)[C@@H]2C(=O)N1CCCCN1CCN(c2ncccn2)CC1 [Tandospirone]	> 50
C[N+]1(CCF)[C@@H]2CC[C@H]1CC(OC(=O)C(O)(c1ccccc1)c1ccccc1)C2 (some centres unmarked) [Flutropium bromide]	> 50
COC(=O)Nc1nc2ccc(C(=O)c3cccs3)cc2[nH]1 [Nocodazole]	0.337
CC1(C)[C@H](/C=C(\Cl)C(F)(F)F)[C@@H]1C(=O)O[C@@H](C#N)c1cccc(Oc2ccccc2)c1 [?-Cyhalothrin]	> 80
Cc1ccc2ccc3cccc4ccc1c2c34 [1-Methylpyrene]	> 90
COC(=O)CCSCCC(=O)OC [Dimethyl 3,3'-thiodipropionate]	> 90
O=C1CCCCCCCCCCCCCC1 [Cyclopentadecanone]	60.9
O=C1NC(=O)c2cc([N+](=O)[O-])ccc21 [4-Nitrophthalimide]	> 90
CC(C)CC#N [Isovaleronitrile]	> 90
Cc1cccc(C)c1NC(=O)c1cc(S(N)(=O)=O)c(Cl)cc1O [Xipamide]	> 50
C=CCCCCCCCCC(=O)OC [Methyl 10-undecenoate]	> 50
CCCCOC(=O)COc1ccc(Cl)cc1Cl [2,4-D 1-butyl ester]	> 90
CCCCN(CCCC)C(=S)S [Sodium dibutylcarbamodithioate]	> 90
CC/C=C\CCOC(=O)C(C)C [(3Z)-Hex-3-en-1-yl 2-methylpropanoate]	> 90
CC(C)Oc1cccc(NC(=O)c2ccccc2C(F)(F)F)c1 [Flutolanil]	> 90

SMILES	CC50 at 24 h [µM]
O=c1[nH]c(=O)[nH]c(=O)[nH]1 [Cyanuric acid]	> 90
O=C1O[C@H](CO)[C@@H](O)[C@H](O)[C@H]1O [Gluconolactone]	> 90
COc1cccc(CCc2ccccc2OCC(CN(C)C)OC(=O)CCC(=O)O)c1 (centres unmarked) [Sarpogrelate hydrochloride]	17.2
C/C=C1/C(=O)C[C@H]2[C@@H]3CCC4=CC(=O)CC[C@]4(C)[C@H]3CC[C@]12C [Guggulsterone E]	> 90
CCc1c(C)[nH]c2c1C(=O)C(CN1CCOCC1)CC2 (centres unmarked) [Molindone hydrochloride]	> 20
Nc1ccc([N+](=O)[O-])cc1 [4-Nitroaniline]	> 90
CCCCCCO [1-Hexanol]	> 90
CNC(=NCCSCc1csc(N=C(N)N)n1)NC#N [Tiotidine]	> 50
CN[C@]1(c2ccccc2Cl)CCCCC1=O [(S)-Ketamine]	> 50
Cl[C@H]1[C@H](Cl)[C@@H](Cl)[C@@H](Cl)[C@H](Cl)[C@H]1Cl [1,2,3,4,5,6-Hexachlorocyclohexane]	45.8
CCCC1CCOC(C)S1 (centres unmarked) [2-Methyl-4-propyl-1,3-oxathiane]	> 90
C/C=C1\NC(=O)[C@H]2CSSCC/C=C/[C@H](CC(=O)N[C@H](C(C)C)C(=O)N2)OC(=O)[C@H](C(C)C)NC1=O [Romidepsin]	0.0269
O=Cc1ccccc1Cl [2-Chlorobenzaldehyde]	> 90
Oc1ccc(Oc2ccccc2)cc1 [4-Phenoxyphenol]	35.8
O=C(O)c1cc(-c2ccccc2)nc2ccccc12 [Cinchophen]	> 50
O=C(NS(=O)(=O)/C=C/c1ccccc1)c1ccc(F)cc1Cl [PharmaGSID_48516]	> 90
CCCCN1C(=O)c2ccccc2C1=O [2-Butyl-1H-isoindole-1,3(2H)-dione]	> 90
N#CC(CCc1ccc(Cl)cc1)(Cn1cncn1)c1ccccc1 (centres unmarked) [Fenbuconazole]	49.1
Nc1ccc(-c2ccc(F)cc2)cc1 [4'-Fluoro-4-aminodiphenyl]	> 90
C(=C/c1ccccc1)/c1ccccc1 [cis-Stilbene]	> 90
c1ccc(C(O[C@@H]2CCCN(CCc3ccc4c(c3)OCO4)C2)c2ccccc2)cc1 [Zamifenacin fumarate]	26.4
CCCCCCCCCCCCCCC[C@H](O)[C@@H](N)CO [Safingol]	> 50
Cc1ccc([N+](=O)[O-])cc1N [2-Methyl-5-nitroaniline]	> 90
COc1ccc2cc(CCC(C)=O)ccc2c1 [Nabumetone]	> 20

same assay, conditions: rat, gh3-tre-luc cells, AC50 (uM) modified / 1000, Tox21_110001=Tox21_110445; viability, 1 nM T3 present, 24 h

SMILES	CC50 at 24 h [µM]
CC1=C2[C@H]3OC(=O)[C@@H](C)[C@@H]3CC[C@@]2(C)C=CC1=O [alpha-Santonin]	> 50

same assay, conditions: rat, gh3-tre-luc cells, AC50 (uM) modified / 1000, Tox21_110001=Tox21_112258; viability, 1 nM T3 present, 24 h

SMILES	CC50 at 24 h [µM]
O=C(C[S+]([O-])C(c1ccccc1)c1ccccc1)NO (centres unmarked) [Adrafinil]	> 50

same assay, conditions: rat, gh3-tre-luc cells, AC50 (uM) modified / 1000, Tox21_110001=Tox21_113486; viability, 1 nM T3 present, 24 h

SMILES	CC50 at 24 h [µM]
CCCCCc1cc(O)c2c(c1)OC(C)(C)c1ccc(C)cc1-2 [Cannabinol]	13.4

same assay, conditions: rat, gh3-tre-luc cells, AC50 (uM) modified / 1000, Tox21_110001=Tox21_200241; viability, 1 nM T3 present, 24 h

SMILES	CC50 at 24 h [µM]
CN(C)CCN(C)C [N,N,N',N'-Tetramethylethylenediamine]	> 90

same assay, conditions: rat, gh3-tre-luc cells, AC50 (uM) modified / 1000, Tox21_110001=Tox21_200868; viability, 1 nM T3 present, 24 h

SMILES	CC50 at 24 h [µM]
CC(C)[C@]12CC(=O)[C@H](C)[C@H]1C2 [alpha-Thujone]	> 90

same assay, conditions: rat, gh3-tre-luc cells, AC50 (uM) modified / 1000, Tox21_110001=Tox21_201304; viability, 1 nM T3 present, 24 h

SMILES	CC50 at 24 h [µM]
CCCCCCCCCCCC#N [Dodecanenitrile]	> 90

same assay, conditions: rat, gh3-tre-luc cells, AC50 (uM) modified / 1000, Tox21_110001=Tox21_201682; viability, 1 nM T3 present, 24 h

SMILES	CC50 at 24 h [µM]
NC(=S)Nc1ccccc1 [1-Phenyl-2-thiourea]	> 90

same assay, conditions: rat, gh3-tre-luc cells, AC50 (uM) modified / 1000, Tox21_110001=Tox21_202204; viability, 1 nM T3 present, 24 h

SMILES	CC50 at 24 h [µM]
COP(=O)(NC(C)=O)SC (centres unmarked) [Acephate]	> 90

same assay, conditions: rat, gh3-tre-luc cells, AC50 (uM) modified / 1000, Tox21_110001=Tox21_300394; viability, 1 nM T3 present, 24 h

SMILES	CC50 at 24 h [µM]
O=C(O)C(F)(F)C(F)(F)C(F)(F)C(F)(F)C(F)(F)F [Perfluorohexanoic acid]	> 90

same assay, conditions: rat, gh3-tre-luc cells, AC50 (uM) modified / 1000, Tox21_110001=Tox21_300741; viability, 1 nM T3 present, 24 h

SMILES	CC50 at 24 h [µM]
N#Cc1ccncc1 [4-Pyridinecarbonitrile]	> 100

same assay, conditions: rat, gh3-tre-luc cells, AC50 (uM) modified / 1000, Tox21_110001=Tox21_301908; viability, 1 nM T3 present, 24 h

SMILES	CC50 at 24 h [µM]
COP(=S)(OC)Oc1ccc([N+](=O)[O-])cc1Cl [Dicapthon]	> 90
